Values of other authors as cited in patent US20100305045A1, “OMEGA-3 OIL CONTAINING OPHTHALMIC EMULSIONS” (Abbott Medical Optics Inc., priority 2009, published 2010).

Conditions: HLB value as reported by the manufacturer of the commercial product, or rough average

HLB	Substance
8.0	2,4,7,9-Tetramethyl-5-decyne-4,7-diol ethoxylate
11.4	Polyoxyethylene sorbitan tetraoleate
5.3	Polyoxyethylene(2) cetyl ether [Brij ® 52]
4.6	Polyoxyethylene(2) nonylphenyl ether [Igepal CO-210]
4.9	Polyoxyethylene(2) oleyl ether [Brij ® 92/93]
4.9	Polyoxyethylene(2) stearyl ether [Brij ® 72]
10.0	Polyoxyethylene(5) isooctylphenyl ether [Igepal ® CA-520]
14.6	Polyoxyethylene(12) isooctylphenyl ether [Igepal ® CA-720]
14.2	Polyoxyethylene(12) nonylphenyl ether [Igepal ® CO-720]
14.5	Polyoxyethylene(12) tridecyl ether
19.0	Polyoxyethylene(100) nonylphenyl ether [Igepal ® CO-990]
19.0	Polyoxyethylene(150) dinonylphenyl ether [Igepal ® DM-970]
6.7	Sorbitan monopalmitate
4.7	Sorbitan monostearate

Second part, the substance before the results:

Substance	HLB
2,4,7,9-Tetramethyl-5-decyne-4,7-diol ethoxylate (15 EO/OH)	17.0
Polyoxyethylene sorbitol hexaoleate	10.2
Polyoxyethylene(2) isooctylphenyl ether [Igepal ® CA-210]	4.3
Polyoxyethylene(4) lauryl ether [Brij ® 30]	9.7
Polyoxyethylene(5) nonylphenyl ether [Igepal ® CO-520]	10.0
Polyoxyethylene(18) tridecyl ether	14.5
Polyoxyethylene(40) isooctylphenyl ether [Triton ® X-405]	17.9
Polyoxyethylene(40) nonylphenyl ether [Igepal ® CO-890]	17.8
Polyoxyethylene(100) stearyl ether [Brij ® 700]	18.8
Sorbitan monooleate	4.3

Same assay, conditions: HLB value as reported by the manufacturer of the commercial product, or rough average; listed as Brij 72

HLB	Substance
approximately 4.9	Polyoxyethylene(2) stearyl ether [Brij ® 72]
